Assay results from patent US20070093520A1, “Method of treatment of diarrhea-predominant irritable bowel syndrome in a subject” (priority 2005, published 2007).

Tested on: diarrhea-predominant IBS subjects
Format: in vivo, human
Settings: Cilansetron 2 mg, N=1454
Experimental: The study was performed in approximately 150 study centers. Approximately 1600 eligible subjects were to be given cilansetron 2 mg TID. At Visit 1, pre-treatment assessments were conducted. […] Subjects were to return to the study site one month later for Visit 3 (Day 31) for their first interim assessment. […] All subjects who discontinued from the study were to have the same post-study assessments required at Visit 7 performed at their early termination visit. […]
Stool specimens were analyzed at every visit for occult blood. An independent GERB had been established to provide advice on GI AEs during the course of the study.
Adverse events were assessed at Baseline, at each clinic visit, and at the end of the study (Month 12 or the early termination visit). All AEs, which occurred during the study were followed up in accordance with good medical practice until resolved or judged no longer clinically significant, or if a condition was chronic, until fully characterized. Adverse events could occur in the specified follow-up period and, regardless of the interval since the last administration of the study medication, were treated in the same manner as an AE which occurred during the treatment with study medication. Each AE was evaluated for duration, severity, seriousness, and causal relationship to the investigational drug. The action taken and the outcome were also recorded.
Specifically, subjects who were lost to follow-up and had no post-Baseline contact with the site were excluded from the Safety population. The subjects who discontinued from the study due to lost to follow-up were identified based on the information collected on the study termination CRF page.
After the pretreatment assessment at Visit 1 (Days […] to −3), subjects were to return to the study site for a Baseline assessment and start the treatment at Visit 2 (Day 1).
For the by time-interval analyses of disposition, prevalence of AEs, and of markedly abnormal and predefined changes in laboratory values, vital signs, and ECGs, the following interval windows were used:
Adverse events that were already present prior to the first dose of cilansetron study medication but increased in severity afterwards were considered as treatment-emergent.
The 5% cutoff point was based on the incidence within higher level terms.
Subjects were counted at most once for each primary system organ class and preferred term. Serious AEs that resolved prior to receiving study medication or occurred more than 30 days after the last dose of study medication were not included in the incidence tables. A listing of all SAEs is presented; SAEs with onset prior to receiving study medication or more than 30 days after discontinuation of study medication were flagged. The listing presents lower level term and preferred term of the SAE, severity, action taken, outcome, and relationship of the SAE, start and stop date of the SAE, study day of onset of the SAE, age, race, and sex.

Cc1nccn1C[C@H]1CCc2c(c3cccc4c3n2CCC4)C1=O [cilansetron, (R)-(−)-4,5,6,8,9,10-hexahydro-10-[(2-methyl-1H-imidazol-1-yl)methyl]-11H-pyrido-[3,2,1-jk]-carbazol-11-one]
22 (2%) n (%): TEAE incidence: Gastrointestinal Histopathology Procedures
59 (4%) n (%): TEAE incidence: Dyspeptic Signs and Symptoms
25 (2%) n (%): TEAE incidence: Cholesterol Analyses | TEAE incidence: ECG Investigations
7 (<1%) n (%): TEAE incidence: Electrocardiogram T Wave Inversion
32 (2%) n (%): TEAE incidence: Faeces Hard
104 (7%) n (%): TEAE incidence: Headaches NEC
2 (<1%) n (%): TEAE incidence: Carbohydrate Tolerance Analyses (Incl Diabetes) | TEAE incidence: Carpal Tunnel Syndrome | TEAE incidence: Central Nervous system Vascular Disorders NEC | TEAE incidence: Colitis Ischaemic | TEAE incidence: Colonic Polyp | TEAE incidence: Diaphragmatic Hernias | TEAE incidence: Duodenitis | TEAE incidence: Dysgeusia | TEAE incidence: Electrocardiogram Abnormal NOS | TEAE incidence: Eosinophil Percentage Increased | TEAE incidence: Epigastric Discomfort | TEAE incidence: Faeces Discoloured | TEAE incidence: Gastric Erosions | TEAE incidence: Gastric Ulcer | TEAE incidence: Gastrointestinal Disorders NEC | TEAE incidence: Gastrointestinal Mucosal Dystrophies and Secretion Disorders | TEAE incidence: Gastrointestinal Neoplasms NEC | TEAE incidence: Gastrointestinal Pain NOS | TEAE incidence: Glucose Urine Present | TEAE incidence: Halitosis | TEAE incidence: Headache NOS Aggravated | TEAE incidence: Hiatus Hernia | TEAE incidence: Hypoaesthesia | TEAE incidence: Inguinal Hernia NOS | TEAE incidence: Inguinal Hernias
3 (<1%) n (%): TEAE incidence: Dry Mouth | TEAE incidence: Electrocardiogram St Segment Depression | TEAE incidence: Electrocardiogram St Segment Elevation | TEAE incidence: Faecal Abnormality NOS | TEAE incidence: Gastrointestinal Inflammatory Disorders NEC | TEAE incidence: Herpes Simplex
5 (<1%) n (%): TEAE incidence: Cystitis Acute NOS | TEAE incidence: Disturbances in Consciousness NEC | TEAE incidence: Eructation | TEAE incidence: Frequent Bowel Movements
223 (15%) n (%): TEAE incidence: Gastrointestinal and Abdominal Pains (Excl Oral and Throat)
13 (<1%) n (%): TEAE incidence: Dental Pain and Sensation Disorders | TEAE incidence: Gastritis NOS
30 (2%) n (%): TEAE incidence: Haemorrhoids
21 (1%) n (%): TEAE incidence: Gastrointestinal Spastic and Hypermotility Disorders
73 (5%) n (%): TEAE incidence: Diarrhoea NOS
28 (2%) n (%): TEAE incidence: Dizziness
19 (1%) n (%): TEAE incidence: Gamma-Glutamyltransferase Increased
4 (<1%) n (%): TEAE incidence: Cystitis NOS | TEAE incidence: Dyspepsia Aggravated | TEAE incidence: Electrocardiogram T Wave Abnormal | TEAE incidence: Gastric Ulcers and Perforation | TEAE incidence: Gastritis Aggravated | TEAE incidence: Herpes Zoster | TEAE incidence: Hyperacidity
24 (2%) n (%): TEAE incidence: Gastroenteritis NOS
587 (40%) n (%): TEAE incidence: Gastrointestinal Disorders
8 (<1%) n (%): TEAE incidence: Diarrhoea Aggravated
228 (16%) n (%): TEAE incidence: Gastrointestinal Atonic and Hypomotility Disorders NEC
51 (4%) n (%): TEAE incidence: Faeces Abnormal | TEAE incidence: Influenza
50 (3%) n (%): TEAE incidence: Dyspepsia
1 (<1%) n (%): TEAE incidence: Cardiac Enzymes Increased | TEAE incidence: Carotid Artery Atheroma | TEAE incidence: Carotid Artery Stenosis | TEAE incidence: Cellulitis | TEAE incidence: Central Nervous System Haemorrhages and Cerebrovascular Accidents | TEAE incidence: Cerebral Infarction | TEAE incidence: Cervical Root Pain | TEAE incidence: Cervical Spinal Cord and Nerve Root Disorders | TEAE incidence: Colitis NOS | TEAE incidence: Defaecation Urgency | TEAE incidence: Dental Discomfort | TEAE incidence: Diarrhoea Haemorrhagic | TEAE incidence: Duodenal Polyp | TEAE incidence: Duodenal Ulcer | TEAE incidence: Duodenal Ulcers and Perforation | TEAE incidence: Dysphagia | TEAE incidence: Dystonias | TEAE incidence: Electrocardiogram Change NOS | TEAE incidence: Electrocardiogram Pr Interval Prolonged | TEAE incidence: Electrocardiogram Pr Shortened | TEAE incidence: Electrocardiogram Q Waves Normal | TEAE incidence: Electrocardiogram Qt Shortened | TEAE incidence: Electrocardiogram T Wave Amplitude Decreased | TEAE incidence: Epigastric Hernia | TEAE incidence: Facial Cranial Nerve Disorders | TEAE incidence: Facial Palsy | TEAE incidence: Food Poisoning NOS | TEAE incidence: Gamma-Glutamyltransferase Decreased | TEAE incidence: Gastric Polyps | TEAE incidence: Gastrointestinal Dyskinetic Disorders | TEAE incidence: Gastrointestinal Motility Disorder NOS | TEAE incidence: Gingival Disorders NEC | TEAE incidence: Gingivitis | TEAE incidence: Glossitis | TEAE incidence: Haematemesis | TEAE incidence: Haematological Analyses NEC | TEAE incidence: Haemoglobin Decreased | TEAE incidence: Haemorrhoids Aggravated | TEAE incidence: Hiccups | TEAE incidence: Hypersomnia | TEAE incidence: Hypoaesthesia Oral | TEAE incidence: Ileus Paralytic | TEAE incidence: Intercostal Neuralgia | TEAE incidence: Intertrigo Candida
12 (<1%) n (%): TEAE incidence: Gastrointestinal Signs and Symptoms NEC
38 (3%) n (%): TEAE incidence: Haemorrhoids and Gastrointestinal Varices (Excl Oesophageal)
9 (<1%) n (%): TEAE incidence: Faecal Occult Blood Positive | TEAE incidence: Haemorrhoidal Haemorrhage
18 (1%) n (%): TEAE incidence: Eosinophil Count Increased
